Columns and labels:
gastric mucous membrane = settings: cited from earlier work
[1] = system: Indomethacin-Induced Ulcer; assay: Indomethacin-Induced Ulcer; format: in vivo, male rats (Sprague Dawley SIV 50); settings: rat
Procedure: 1. Indomethacin-Induced Ulcer Test animals were male rats (Sprague Dawley SIV 50) weighing between 150-200 g. The animals were kept fasting 24 hours before starting the test, drinking water being available ad libitum. The animals were alloted to three groups, each group comprising ten rats. […] Five hours following administration the animals were killed with CO2 gas, the stomachs removed and opened along the greater curvature. After measuring the pH value the stomach was tested for ulcerations under a stereo magnifying glass. The method described by Chaumontet, et al. Arzneimittelforschung/Drug Research 28 (II) pp 2119-2121 (1978) was used to rate the ulcerations and calculate the ulcer index (UI). The effect of the substances was rendered as the percentage inhibition of the ulcers caused by indomethacin in comparison to the untreated reference group.

Gastric Acid Secretion = assay: Test for the Inhibition of the Gastric Acid Secretion According to Ghosh and Schild; format: in vivo, male rats (Sprague Dawley SIV 50); settings: rat
Procedure: 3. Test for the Inhibition of the Gastric Acid Secretion According to Ghosh and Schild (Brit. J. Pharmacol. 13 pp 54-61 (1958) The test animals were male rats (Sprague Dawley SIV 50) weighing between 300-450 g. The animals were kept fasting 24 hours before starting the test, water being available ad libitum. The animals were anesthetized with 1.25 g/kg urethane IP. Trachea, vena jugularis, arteria carotis, and oesophagus were exposed, and a fistula placed at the pylorus. Via an oesophagus tube the stomach was perfused with 1/4000 N NaOH at a flow rate of 3 ml/min. By means of the NaOH perfusion the pH of the gastric juice was adjusted to about pH 7 and continuously measured with a measuring electrode. Via the vena jugularis the acid-stimulating substance (carbachol 0.25 μg/kg/min or pentagastrin 1 μg/kg/min) was infused.

Cold-Stress Ulcer = assay: Cold-Stress Ulcer; format: in vivo, male rats (Sprague Dawley SIV 50); settings: rat
Procedure: 2. Cold-Stress Ulcer Test animals were male rats (Sprague Dawley SIV 50) weighing between 110 and 150 g. The animals were kept fasting 24 hours before starting the test, drinking water being available ad libitum. […] Immediately after administration of the substances the animals were anesthetized with […] on their backs, fixed with adhesive tapes to wooden boards. Thus rendered immobile the animals were put into a permanently lit room, ambient temperature +15° C., relative humidity 50-60%, for 14 hours. After this time of exposure the rats were killed with CO2, the stomachs removed and opened along the greater curvature. After measuring the pH value the gastric mucosa was tested for ulcerations under a stereo magnifying glass. The ulcerations were rated and the ulcer index (UI) calculated as described for test 1, the effect of the substances being expressed as the percentage inhibition of the ulcer formation in comparison to the untreated control group.

[2] = 125 mg/kg (dose column: i.g.; method: duodenal catheter)
[3] = 250 mg/kg (dose column: i.g.; method: duodenal catheter)

Row | SMILES | Protective Action in %, "Indomethacin" ulcer model ([1]; 125 mg/kg i.g.) | Protective Action in %, "Indomethacin" ulcer model ([1]; 250 mg/kg i.g.) | Antisecretion (Gosh + Schild Model) (Gastric Acid Secretion; [2]) | Antisecretion (Gosh + Schild Model) (Gastric Acid Secretion; [3]) | Protective Action in %, "Stress" ulcer model (Cold-Stress Ulcer; 125 mg/kg i.g.) | further results
1 | CN/C(=N/CCSCc1nc[nH]c1C)NC#N [Cimetidine, reference compound] |  |  |  |  |  | undesired side effects (gastric mucous membrane; general statement in therapy): undesired CNS and other side effects; changes of the gastric mucous membrane / relapse ulcers (gastric mucous membrane; long-term treatment, following discontinuation): changes of the gastric mucous membrane found under long-term treatment; Protective Action in %, "Indomethacin" ulcer model ([1]; 100 mg/kg i.g.): 80%; Protective Action in %, "Indomethacin" ulcer model ([1]; 200 mg/kg i.g.): 89%; Protective Action in %, "Indomethacin" ulcer model ([1]; 3 × 100 mg/kg i.g.): 39%; Antisecretion (Gosh + Schild Model): pH reached (Gastric Acid Secretion; 5 mg/kg i.v., after 35 min): 7.9 pH; Antisecretion (Gosh + Schild Model): time after which pH 7.9 was reached (Gastric Acid Secretion; 5 mg/kg i.v.): 35 min; Protective Action in %, "Stress" ulcer model (Cold-Stress Ulcer; 100 mg/kg i.g.): 53%; Protective Action in %, "Stress" ulcer model (Cold-Stress Ulcer; 200 mg/kg i.g.): 54%
2 | CN(C)CCCSc1nc(-c2ccccc2)nc2c1Cc1ccccc1O2 [Compound (1), 4-(3-dimethylaminopropylthio)-2-phenyl-5H-[1]benzopyrano[2,3-d]pyrimidine] | 88% | 95% | No effect | No effect | 70% | Protective Action in %, "Stress" ulcer model (Cold-Stress Ulcer; 250 mg/kg i.g.): 86%
3 | Cc1ccc(-c2nc3c(c(SCCCN(C)C)n2)Cc2ccccc2O3)cc1 [Compound (16)] | 83% | 99.5% | No effect | No effect | 72% | 
4 | Cc1ccc(-c2nc3c(c(SCCCN4CCOCC4)n2)Cc2ccccc2O3)cc1 [Compound (26), 2-(4-methylphenyl)-4-(3-morpholinopropylthio)-5H-[1]benzopyrano[2,3-d]pyrimidine] |  | 50% |  | No effect |  | 
5 | CNCCCSc1nc(-c2ccc(C)cc2)nc2c1Cc1ccccc1O2 [Compound (27a), 4-(3-methylaminopropylthio)-2-(4-methylphenyl)-5H-[1]benzopyrano[2,3-d]pyrimidine] |  | 94% |  | No effect |  | 

— patent publication US4578380A, “5H-[1]benzopyrano[2,3-d]pyrimidine derivatives useful for controlling lesions of the gastric and duodenal mucous membranes” (Warner-Lambert Company, priority 1983, dated 1986)
